Measurements as given in paper PMC3283556, “The Activities of Current Antimalarial Drugs on the Life Cycle Stages of Plasmodium: A Comparative Study with Human and Rodent Parasites” (PLoS Medicine, 2012).
“Also recorded” adds a separate entry of the source. Like-named read-outs stand apart in the source and are kept apart here.

Legend:
[1] = test system: P. falciparum and P. vivax; parameters: method as in personal communication, MMV; settings: phase IIa, P. falciparum and P. vivax patients; ref personal communication, MMV; cited from earlier work
Plasmodium oocysts = experiment: Oocyst development / sporogony, Plasmodium species not stated at the place; format: in vivo; settings: for inhibition at 10 µM: Plasmodium, box linked to oocysts, read-out: Inhibition at 10 μM (oocysts, Figure 5); for effect on sporogony / oocyst production: species not given
Protocol: (§1) Membrane feeds were performed as described previously. Briefly, PbGFPcon-infected mouse blood was mixed with compounds, immediately placed into membrane feeders (39°C) and offered for 30 min to 80–100 overnight-starved A. stephensi (SDA 500 strain). After 7–9 d at 19°C/80%RH, mosquito midguts were dissected out. Midguts were fixed with paraformaldehyde and oocyst number was determined microscopically by semi-automated analysis as previously described.
Gametocyte cultures were produced according to the same protocol as the Pf exflagellation assay. Pooled gametocyte cultures were evenly divided between compounds in fresh medium and incubated at 37°C for 24 h. The parasite pellets were then resuspended in fresh RBCs and human serum treated with the compounds to a 50% haematocrit and immediately fed to mosquitoes as described above and then maintained at 27°C/60%RH for 10–12 d before dissection and counting. […]

[2] = test system: P. falciparum mature gametocytes / male gamete exflagellation; experiment: P. falciparum exflagellation assay; format: cell-based, Plasmodium falciparum; settings: for inhibition at 10 µM: Plasmodium falciparum
Protocol: After 24 h, exflagellation was triggered by a temperature decrease to ∼21°C and observed 20 min later under the microscope. Highly motile exflagellation centres were recorded for ∼50–150 adjacent fields of view and reported per 10,000 RBCs.
(§2) (A) Assays examined exflagellation (P. falciparum), ookinete formation (P. berghei), or oocyst formation (P. falciparum). All antimalarials were screened at 10 µM. (B) The biological content of the in vitro P. berghei ookinete assay spans gamete formation, fertilization, zygote development, and ookinete formation. […] (D) The in vitro P. falciparum exflagellation assay exposes mature gametocytes to antimalarials for 24 h before triggering exflagellation. […] All experiments in triplicate. (E) The in vivo P. falciparum oocyst assay differs from the P. berghei oocyst assay in that mature gametocytes were exposed to the antimalarials in culture for 24 h before feeding to mosquitoes.

[3] = test system: P. berghei ookinete formation; experiment: P. berghei ookinete development assay; format: cell-based, Plasmodium berghei; settings: for effect on ookinete formation: 10 µM; for inhibition at 10 µM: Plasmodium berghei, box linked to ookinete, read-out: Inhibition at 10 μM (ookinete, Figure 5)
Protocol: Compounds and P. berghei gametocyte-infected blood were dispensed in a 96-well plate containing ookinete medium. After 24 h at 19°C, Giemsa-stained ookinetes were counted under the microscope (×40) as previously described,[28].
as §2, with “Figure 3 The transmission-blocking potential of selected antimalarials in three bioassays that cover different phases of Plasmodium vector stage development. (A)” for “(A)”, “formation. Ookinete formation was insensitive to most of the antimalarials tested.” for “formation.”, “mosquitoes. […] NPC1161-B, lumefantrine, halofantrine, and mefloquine +RS isomer were also active. (n = 4–61 observations; average ± standard error of the mean [SEM]).” for “mosquitoes.”

HepG2 cells = experiment: Growth retardation of HepG2 cells
Protocol: (§3) 7.5×10^3 HepG2 cells in 50 µl of medium (1.5×10^5 cells/ml) were seeded in 384 well plates (Aurora 384 IQ-EB Black/Clear Plates) 20–26 h prior to the actual infection. 2 h prior to infection, 50 nl of compound in DMSO (0.1% final DMSO concentration per well) were transferred with a PinTool (GNF Systems) into the assay plates (10 µM final concentration). P. yoelii sporozoites were freshly dissected from infected A. stephensi mosquito salivary glands and filtered twice with a 40-µm strainer. The HepG2 cells were then infected with 8×10^3 sporozoites per well. After infection and 1-h incubation at 37°C, the cultures were washed, new media and compound added, and further incubated with 5-fold increased concentration of penicillin/streptomycin for 48 h at 37°C before exoerythrocytic forms (EEFs) quantification of infected cells by immunofluorescence.
(§4) High-content imaging of infected HepG2-CD81 cells was performed as described in Meister et al.. Wells were analysed using a custom Acapella (PerkinElmer) script parameterized for this assay. In brief, images from fields inside the well were first discarded as out of focus when the intensity in the nuclear area was too low. Then hepatic cells were counted by detecting the nuclei labelled with Hoechst 33342 and parasites were segmented using the HSP70 immuno-labelling. Morphology-based (e.g., area, roundness) and intensity-based features were calculated for each object detected including the hepatocyte nuclei and the parasites. Parasitemia was set as the ratio between parasite number (Alexa fluor positive) and the hepatocyte nuclei count, determined at the same time.
(§5) When an infected mosquito bites a host, ∼100 sporozoites may be injected into the dermis from where they rapidly invade liver cells,[33]. This infective step represents the second bottleneck during transmission and therefore another potentially vulnerable point for intervention. In the absence of a practical liver stage assay measuring the formation of P. falciparum/P. vivax liver schizonts, an equivalent assay was developed in P. yoelii and used to assess the activity of the collection of molecules against this specific stage. Specifically, P. yoelii sporozoites were dissected from the salivary glands of infected mosquitoes and were allowed to invade human hepatocarcinoma cells expressing the CD81 protein. The development of the liver schizonts was monitored by immunofluorescence staining using an HSP70 antibody specific to the parasite (Figure 4A).

[4] = test system: P. berghei ookinete formation; experiment: P. berghei ookinete development assay; format: cell-based; settings: Plasmodium berghei; medium throughput fluorescent ookinete assay
[5] = test system: P. falciparum asexual blood stage parasites (strains NF54, D6, K1, W2, 7G8, TM90C2A, V1/S); experiment: [3H]-hypoxanthine incorporation growth inhibition assay, asexual blood stage; format: cell-based, Plasmodium falciparum
Protocol: In vitro antimalarial activity was measured using the [^3H]-hypoxanthine incorporation assay with various strains of P. falciparum obtained from MR4. Results were expressed as the concentration resulting in 50% inhibition (IC50).
The half-maximal inhibitory concentrations (IC50) were determined for each molecule (Table S2).
Figure 2 The potencies of selected antimalarials against asexual blood stages. Main classes of antimalarials were tested against the blood stage of seven Plasmodium falciparum strains in the [^3H]hypoxanthine incorporation assay as described in Vennerstrom et al.. The strains tested here (obtained from MR4) were two drug-sensitive strains NF54 and D6 and five drug-resistant strains: K1, resistant to chloroquine (CQ) and pyrimethamine (PYR), origin Thailand, carries mutations in genes pfmdr1, pfcrt, pfdhfr, pfdhps; W2, resistant to CQ, PYR, quinine, cycloguanil, and sulfadoxine, origin Vietnam; 7G8, resistant to CQ and PYR, origin Brazil; TM90C2A, resistant to CQ, PYR, and MFQ, origin Thailand; and V1/S, resistant to CQ, PYR and cycloguanil, origin Vietnam. Results are expressed as the concentration resulting in 50% growth inhibition (IC50).Values are means of ≥3 independent experiments. (A) Endoperoxides. (B) 4-AQs. (C) 8-AQs and amino alcohols. (D) Antifolates, antibiotics, and others.

[6] = test system: P. yoelii liver stage parasites (liver schizonts); experiment: P. yoelii liver stage assay in HepG2 cells (EEF immunofluorescence); format: cell-based, Plasmodium yoelii; settings: Plasmodium yoelii
Protocol: as §3
After washing with 1×PBS and fixation of the cells with 4% paraformaldehyde solution (EMS), membranes were permeabilised with 0.5% Triton-X-100 (Thermo Fisher Scientific) and EEFs were stained using a mouse polyclonal serum raised against the Plasmodium heat shock protein 70 (HSP70), an Alexa goat antimouse IgG, Fca-specific DyLight 649 secondary antibody (Invitrogen), and the Hoechst 33342 nucleic acid dye (Invitrogen). Stained EEFs were then quantified using the Opera Confocal High Content Screening system (PerkinElmer). Images were collected using a 20× magnification at a binning of 2 using a 365 Xeon arc lamp illumination to detect the nuclei and 635-nm laser line to excite DyLight649.
as §4, §5
Figure 4 Validation and results of anti-infectives tested against P. yoelii liver stage parasites. (A) Opera-generated images from a time point experiment using a 20× objective lens. P. yoelii parasites (red) were visualized using a mouse polyclonal HSP70 antibody, and the HepG2 cells (green) were stained with Hoechst 33342 nucleic acid dye. […] (B) A dose response plot with atovaquone from data generated from the Opera imaging system. The median areas of compound-treated parasites were compared to untreated DMSO controls to determine the degree of inhibition.

[7] = test system: P. falciparum oocyst formation; experiment: Standard membrane feed assay, P. falciparum oocysts in A. stephensi; format: in vivo, Plasmodium falciparum; settings: 10 µM, gametocytes exposed 24 h before feeding
Protocol: Gametocyte cultures were produced according to the same protocol as the Pf exflagellation assay. Pooled gametocyte cultures were evenly divided between compounds in fresh medium and incubated at 37°C for 24 h. The parasite pellets were then resuspended in fresh RBCs and human serum treated with the compounds to a 50% haematocrit and immediately fed to mosquitoes as described above and then maintained at 27°C/60%RH for 10–12 d before dissection and counting.
as §2, with “Figure 3 The transmission-blocking potential of selected antimalarials in three bioassays that cover different phases of Plasmodium vector stage development. (A)” for “(A)”, “formation. Ookinete formation was insensitive to most of the antimalarials tested.” for “formation.”, “mosquitoes. […] NPC1161-B, lumefantrine, halofantrine, and mefloquine +RS isomer were also active. (n = 4–61 observations; average ± standard error of the mean [SEM]).” for “mosquitoes.”

[8] = parameters: method as in PMID 22759078, PMID 17053895, PMID 18694333, PMID 18840754, PMID 19776738; settings: human blood, therapeutic / relevant doses; cited from earlier work
[9] = test system: P. berghei oocyst formation; experiment: Standard membrane feed assay, P. berghei oocysts in A. stephensi; format: in vivo, Plasmodium berghei; settings: for transmission-blocking effect on P. berghei oocysts (words): 10 µM
Protocol: as §1
Supplementary file pmed.1001169.s001.tif: Figure S1 The transmission-blocking potential of selected compounds against P. berghei in standard membrane feeding assays. All antimalarials were screened at 10 µM in triplicate in independent experiments. The biological content of this assay spans gamete formation through to occyst development all within the gut of the mosquito. […] (TIF) Click here for additional data file.

[10] = 10 µM, 24 h exposure of mature gametocytes
[11] = 10 μM, box linked to gametocytes/exflagellation, read-out: Inhibition at 10 μM (gametocytes/exflagellation, Figure 5)
[12] = HepG2, box linked to liver schizont, read-out: IC50 (liver schizont, Figure 5)
[13] = read-out: inhibition of exflagellation, 10 µM, 24 h exposure of mature gametocytes

For `c1cc([C@H]2CC[C@]3(CC2)OO[C@]2(O3)C3CC4CC(C3)CC2C4)ccc1OCCN1CCOCC1` [OZ439], the “clinical efficacy” value [1] is given as “equivalent efficacy in the treatment of P. falciparum and P. vivax patients”, the inhibition at 10 µM (Plasmodium oocysts) is given as over 90% and the “effect on sporogony / oocyst production” value (Plasmodium oocysts) is given as “impact sporogony”. For the same molecule, the “effect on exflagellation (words)” value [2, 10] was “strong inhibitors of gametocyte maturation/gamete formation” and the inhibition at 10 µM [2, 11] was over 60%.

In the case of `COc1ccc2nc3cc(Cl)ccc3c(Nc3cc(CN4CCCC4)c(O)c(CN4CCCC4)c3)c2n1` [pyronaridine], the “effect on ookinete formation” value [3] is reported as “strongly inhibited ookinete formation”, the inhibition at 10 µM [3] is reported as over 80% and the IC50 (HepG2 cells; Homo sapiens, HepG2, read-out: IC50 HepG2) is reported as under 170 nM. The “CI (cytotoxicity index)” value (HepG2 cells; IC50 HepG2 compared to IC50 parasite) was under 0.63, the IC50 [4] was 6000 nM and the IC50 ([5]; Plasmodium falciparum, asexual blood stage, all parasite lines) was 2 to 10 nM. For the same molecule, the IC50 [6, 12] was under 1000 nM, the IC50 ([6]; HepG2, development of P. yoelii liver schizonts following infection of HepG2 cells, read-out: IC50 Parasite) was 270 ± 130 nM and the IC50 ([6]; HepG2, dose response, read-out: IC50 liver stage) was under 3000 nM. For the same molecule, the “effect on exflagellation (words)” value [2, 10] was “inhibited P. falciparum exflagellation”, the “effect on exflagellation (words)” value ([2]; 10 µM, 24 h exposure of mature gametocytes, listed as Pyronaridine) was “inhibited exflagellation totally” and the inhibition at 10 µM [2, 13] was over 80%. The inhibition at 10 µM [2, 11] was over 60%.

In the case of `O=C1C(O)=C([C@H]2CC[C@H](c3ccc(Cl)cc3)CC2)C(=O)c2ccccc21` [atovaquone], the “effect on ookinete formation” value [3] is reported as “strongly inhibited ookinete formation”, the inhibition at 10 µM [3] is reported as over 80% and the IC50 [4] is reported as 65 nM. For the same molecule, the “potency range against blood stages” value ([5]; P. falciparum blood stages) was “subnanomolar range”, the IC50 ([5]; Plasmodium falciparum, Erythrocyte, box linked to blood stage schizont, read-out: IC50 (erythrocyte schizont, Figure 5)) was under 1 nM and the “fold difference in potency between strains” value ([5]; between the strains D6 and V1/S) was at most 10 fold. For the same molecule, the IC50 [6, 12] was under 1000 nM.

With `OC(c1cc(C(F)(F)F)nc2c(C(F)(F)F)cccc12)C1CCCCN1` (stereo not drawn) [mefloquine (+RS)] the “transmission-blocking effect on P. falciparum oocysts (words)” value [7] was “totally blocked transmission”, the “transmission-blocking effect on P. falciparum oocysts (words)” value ([7]; listed as mefloquine +RS isomer) was “active” and the inhibition at 10 µM (Plasmodium oocysts) was over 90%. For the same molecule, the IC50 ([5]; strain not specified) was under 10 nM, the inhibition at 10 µM [2, 13] was over 80% and the inhibition at 10 µM [2, 11] was over 60%.

For `CO[C@H]1O[C@@H]2O[C@@]3(C)CC[C@H]4[C@H](C)CC[C@@H]([C@H]1C)[C@@]24OO3` [artemether], the Cmax [8] is listed as 0.1 µM and the IC50 [6, 12] is listed as under 1000 nM.

For `CCCCN(CCCC)CC(O)c1cc(Cl)cc2c1-c1ccc(Cl)cc1/C2=C/c1ccc(Cl)cc1` (stereo not drawn) [lumefantrine], the “effect on ookinete formation” value [3] was “little activity”, the “transmission-blocking effect on P. falciparum oocysts (words)” value [7] was “active; also recorded: impaired sporogony” and the “transmission-blocking effect on P. falciparum oocysts (words)” value ([7]; listed as Lumefantrine) was “showed activity”. The Cmax [8] was 13.9 µM, the “transmission-blocking effect on P. berghei oocysts (words)” value [9] was “impaired sporogony; also recorded: most notable transmission-blocking activity” and the “transmission-blocking effect on P. berghei oocysts (words)” value ([9]; listed as Lumefantrine) was “showed activity”. For the same molecule, the inhibition at 10 µM ([9]; Plasmodium berghei) was over 90%, the inhibition at 10 µM (Plasmodium oocysts) was over 90% and the “effect on sporogony / oocyst production” value (Plasmodium oocysts) was “impairs development in the vector”. The IC50 ([5]; Plasmodium falciparum) was under 4 nM, the “effect on exflagellation (words)” value [2, 10] was “only moderate or no inhibition of exflagellation” and the “effect on exflagellation (words)” value ([2]; 10 µM, 24 h exposure of mature gametocytes, listed as Lumefantrine) was “little activity”.
